Where two headings read alike, the source gives them in different places. One block for each compound: values may come before it.
Columns and labels:
[1] = Solubility of polyols in assay buffer; settings: at a concentration of 50% (w/w)
Method: PEGs have been dissolved at a concentration of 50% with the exception of PEGs with a molecular weight of 4000, 8000 and 10000 which were used at a concentration of 25%. For the screening of PEGs and other polyols, the preincubation and reaction temperature was chosen as 60 °C for A. nidulans and A. terreus CBS phytase, 65 °C for A. fumigatus and A. niger phytase and 75 °C for consensus phytase.

A. fumigatus phytase = biological target: T1, A. fumigatus phytase (Aspergillus fumigatus, UniProt O00092); assay type: biochemical; settings: for effect on the thermostabilization of A. fumigatus phytase: polyols with more than 6 or less than 5 carbon atoms, 65 °C; for temperature at which considerable activity still being detected: dicarboxylate at 25% (12.5% final concentration in the activity assay); for increase in phytase activity measured at 37 °C: dicarboxylates; for effects on the thermostability of the protein: sodium acetate 5, 10 and 25%
T1 construct: made in house; host or cells: Hansenula polymorpha
T1 sequence (O00092 27-465): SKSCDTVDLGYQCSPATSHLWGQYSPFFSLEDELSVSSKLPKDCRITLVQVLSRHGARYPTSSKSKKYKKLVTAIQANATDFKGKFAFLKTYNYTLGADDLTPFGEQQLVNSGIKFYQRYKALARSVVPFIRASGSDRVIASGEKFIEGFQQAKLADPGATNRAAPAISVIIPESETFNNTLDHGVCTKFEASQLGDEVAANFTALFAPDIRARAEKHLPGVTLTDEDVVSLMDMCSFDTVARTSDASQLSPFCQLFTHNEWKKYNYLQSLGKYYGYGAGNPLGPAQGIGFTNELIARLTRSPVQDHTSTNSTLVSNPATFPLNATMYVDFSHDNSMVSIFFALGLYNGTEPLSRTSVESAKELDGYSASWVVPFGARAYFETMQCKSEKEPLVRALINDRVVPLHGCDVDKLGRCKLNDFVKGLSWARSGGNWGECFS
Method: (§1) After incubation of the sample for 15 mm at the desired temperature (e.g. at 60 or 65 °C for the screening of additive effects), the reaction was stopped by addition of 0.5 ml 15% trichloroacetic acid. Determination of liberated inorganic phosphate was performed by standard methods.
(§2) Disodium malonate, succinate and glutarate were dissolved at concentrations of 5, 10 and 25% and phytase activity was measured after preincubation of enzyme plus additive and substrate (see above) at the following temperatures: 37, 45, 50, 55, 60, 65, 70, 75, 80, and 85 °C. In the same way, the temperature dependence of the activity of different phytases in the presence of 25% xylitol and ribitol was tested. It should be noted that the concentration of the additives was reduced by half after substrate addition.

A. niger phytase = biological target: T2, A. niger phytase (Aspergillus niger, UniProt P34752); assay: Effect of stabilizing additives on thermostability of A. niger phytase; assay type: biochemical; settings: 25% dicarboxylate
T2 construct: made in house; host or cells: Aspergillus niger
T2 sequence (P34752 24-467): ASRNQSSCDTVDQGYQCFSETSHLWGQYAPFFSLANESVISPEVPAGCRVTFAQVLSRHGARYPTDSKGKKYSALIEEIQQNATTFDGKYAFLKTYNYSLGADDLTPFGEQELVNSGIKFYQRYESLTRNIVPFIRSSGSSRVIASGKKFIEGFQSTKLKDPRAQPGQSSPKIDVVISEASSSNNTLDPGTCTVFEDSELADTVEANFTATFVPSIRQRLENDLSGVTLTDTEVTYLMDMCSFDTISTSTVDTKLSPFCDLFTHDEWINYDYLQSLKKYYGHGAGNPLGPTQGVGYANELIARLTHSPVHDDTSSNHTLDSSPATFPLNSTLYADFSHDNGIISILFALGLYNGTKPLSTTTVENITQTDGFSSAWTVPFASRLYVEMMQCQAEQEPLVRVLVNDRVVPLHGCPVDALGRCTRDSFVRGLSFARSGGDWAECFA
Method: as §1, §2

consensus phytase = assay: Effect of stabilizing additives on thermostability of consensus phytase; assay type: biochemical; settings: for increase of thermostability: 25% dicarboxylate
Method: as §1
as §2, with “In the same way, the temperature dependence of the activity of different phytases in the presence of 25% xylitol and ribitol was tested.” left out

A. terreus CBS phytase = biological target: T3, A. terreus CBS phytase (Aspergillus terreus, UniProt O00100); assay: Effect of stabilizing additives on thermostability of A. terreus CBS phytase; assay type: biochemical; settings: 25% dicarboxylate
T3 construct: made in house; host or cells: Hansenula polymorpha
T3 sequence (O00100 20-466): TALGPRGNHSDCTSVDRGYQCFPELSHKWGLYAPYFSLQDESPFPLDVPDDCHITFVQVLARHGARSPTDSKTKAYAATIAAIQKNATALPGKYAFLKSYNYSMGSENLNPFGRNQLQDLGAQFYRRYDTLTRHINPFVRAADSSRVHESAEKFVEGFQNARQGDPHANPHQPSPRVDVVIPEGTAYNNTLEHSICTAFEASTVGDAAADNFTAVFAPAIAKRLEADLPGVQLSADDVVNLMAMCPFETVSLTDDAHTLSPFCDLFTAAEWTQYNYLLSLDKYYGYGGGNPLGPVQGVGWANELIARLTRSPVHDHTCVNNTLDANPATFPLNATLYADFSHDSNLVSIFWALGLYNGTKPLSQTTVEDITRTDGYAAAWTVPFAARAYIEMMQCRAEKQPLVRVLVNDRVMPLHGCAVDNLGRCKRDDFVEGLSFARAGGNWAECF
Method: as §1, §2

A. nidulans phytase = biological target: T4, A. nidulans phytase (Emericella nidulans, UniProt O00093); assay: Effect of stabilizing additives on thermostability of A. nidulans phytase; assay type: biochemical, Aspergillus nidulans; settings: 25% dicarboxylate
T4 construct: made in house; host or cells: Aspergillus niger
T4 sequence (O00093 20-463): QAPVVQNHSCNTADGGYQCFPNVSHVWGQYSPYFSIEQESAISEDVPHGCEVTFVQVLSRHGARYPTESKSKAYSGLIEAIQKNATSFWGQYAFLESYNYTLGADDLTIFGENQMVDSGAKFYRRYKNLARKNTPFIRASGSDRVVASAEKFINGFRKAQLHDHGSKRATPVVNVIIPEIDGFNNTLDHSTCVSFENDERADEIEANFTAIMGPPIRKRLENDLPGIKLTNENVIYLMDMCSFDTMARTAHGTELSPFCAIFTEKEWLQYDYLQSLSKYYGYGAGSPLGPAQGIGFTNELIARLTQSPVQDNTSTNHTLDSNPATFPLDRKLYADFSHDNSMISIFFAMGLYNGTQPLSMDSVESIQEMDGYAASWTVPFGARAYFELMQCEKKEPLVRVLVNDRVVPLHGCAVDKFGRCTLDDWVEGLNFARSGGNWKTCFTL
Method: as §1, §2

[2] = in the presence of 50% solutions of polyol
[3] = polyol at a concentration of 12.5%
[4] = polyol at a concentration of 25%

SMILES: OC[C@@H](O)[C@@H](O)CO [erythritol]
- solubility in 0.2 M sodium acetate, pH 5.0 [1]: not soluble
- effect on the thermostabilization of A. fumigatus phytase (A. fumigatus phytase): inferior effect

SMILES: OCC(O)CO [glycerol]
- effect on the thermostabilization of A. fumigatus phytase (A. fumigatus phytase): inferior effect

SMILES: O=C(O)CC(=O)O [malonate, disodium malonate]
- increase of thermostability (A. niger phytase): 5-15 °C
- increase of thermostability (consensus phytase): 5-15 °C
- increase of thermostability (A. terreus CBS phytase): 5-15 °C
- increase of thermostability (A. nidulans phytase): 5-15 °C
- temperature at which considerable activity still being detected (A. fumigatus phytase): 70 °C
- increase in phytase activity measured at 37 °C (A. fumigatus phytase): approximately 4 fold

- solubility in 0.2 M sodium acetate, pH 5.0 [1]: not soluble
- effect on the thermostabilization of A. fumigatus phytase (A. fumigatus phytase): inferior effect
SMILES: O=C[C@@H](O)[C@@H](O)[C@H](O)[C@H](O)[C@H](O)CO [mannoheptose]

SMILES: O=C(CO)[C@@H](O)[C@@H](O)[C@H](O)[C@H](O)CO [mannoheptulose]
- solubility in 0.2 M sodium acetate, pH 5.0 [1]: not soluble
- effect on the thermostabilization of A. fumigatus phytase (A. fumigatus phytase): inferior effect

SMILES: OC[C@@H](O)[C@@H](O)[C@@H](O)CO [ribitol]
- specific activities measured at 65 °C (A. fumigatus phytase; in the presence of 25% polyol): 11 U*(mg protein)^-1
- specific activities measured at 65 °C (A. fumigatus phytase; [2]): 51 U*(mg protein)^-1
- specific activity measured at 65 °C (A. fumigatus phytase; [3]): 11-12 U/mg
- specific activity measured at 65 °C (A. fumigatus phytase; [4]): 51-90 U/mg

- effects on the thermostability of the protein (A. fumigatus phytase): only minor effects
- effects on the thermostability of the protein (A. fumigatus phytase; listed as Sodium acetate): no effect
SMILES: CC(=O)O [sodium acetate]

- specific activities measured at 65 °C (A. fumigatus phytase; in the presence of 25% polyol): 11 U*(mg protein)^-1
- specific activities measured at 65 °C (A. fumigatus phytase; [2]): 74 U*(mg protein)^-1
SMILES: OC[C@@H](O)[C@@H](O)[C@H](O)[C@@H](O)CO [sorbitol]

SMILES: O=C(O)CCC(=O)O [succinate, disodium succinate]
- increase of thermostability (A. niger phytase): 5-15 °C
- increase of thermostability (consensus phytase): 5-15 °C
- increase of thermostability (A. terreus CBS phytase): 5-15 °C
- increase of thermostability (A. nidulans phytase): 5-15 °C
- temperature at which considerable activity still being detected (A. fumigatus phytase): 65 °C
- increase in phytase activity measured at 37 °C (A. fumigatus phytase): 2 fold

SMILES: OC[C@@H](O)[C@H](O)[C@@H](O)CO [xylitol]
- increase of temperature optimum (consensus phytase; xylitol 50%): 10-15 °C
- specific activities measured at 65 °C (A. fumigatus phytase; in the presence of 25% polyol): 21 U*(mg protein)^-1
- specific activities measured at 65 °C (A. fumigatus phytase; [2]): 90 U*(mg protein)^-1
- specific activity measured at 65 °C (A. fumigatus phytase; [3]): 11-12 U/mg
- specific activity measured at 65 °C (A. fumigatus phytase; [4]): 51-90 U/mg

From patent publication EP0969089A1, “Phytase formulation” (F. HOFFMANN-LA ROCHE AG, priority 1998, dated 2000)
